The data set is described as follows: Physicochemical characterisation of tobramycin solutions (pH, osmolality, dynamic viscosity, surface tension). Here is the method:
Thus, aqueous solutions of tobramycin with a pH of 6.0 to 6.5 have a 50% greater viscosity (about 2.9 mPa·s) at a concentration of active agent of 180 mg/ml compared to a solution with 100 mg/ml (about 1.8 mPa·s). […] Under standard conditions, the preparations according to the present invention have a viscosity of about 1.4 to 2.3 mPa·s, and preferably a viscosity in the range of about 1.6 to 2.0 mPa·s. A viscosity of about 1.8 mPa·s is most preferred.
11.08 g of tobramycin, 5.41 g of sulfuric acid (96%), 0.2 g of sodium chloride and 90.95 g of water for injection are used as starting materials. All steps are carried out under aseptic conditions and under nitrogen gas. The water is provided first, to which the sulfuric acid is added. Then sodium chloride and the active agent are added one after the other. The mixture is stirred until complete dissolution of all solid components as determined by visual control. This yields about 100 ml of a solution which has a pH of about 6.0, an osmolality of about 0.22 Osmol/l, a dynamic viscosity of about 1.9 mPa·s and a surface tension of about 71 mN/m. This solution is filtered to sterility and filled into an infusion bottle with a volume of 100 ml. This bottle is tightly closed with a pierceable elastomer stopper and secured with an aluminium cap.
10.88 g of tobramycin, 5.41 g of sulfuric acid (96%), 0.2 g sodium chloride, 0.1 g Tween® 80 and 90.95 g of water for injection are used as starting materials. All steps take place under aseptic conditions and nitrogen gas. The water is provided first to which the sulfuric acid is added. Subsequently, tobramycin is added and dissolved at room temperature. Sodium chloride and Tween® are added to this solution. The mixture is stirred until a clear solution is formed. This yields about 100 ml of a solution which has a pH of about 6.2, an osmolality of about 0.22 Osmol/l, a dynamic viscosity of about 1.9 mPa·s and a surface tension of about 43 mN/m. The solution is filtered to sterility and filled aseptically into single dose containers of polypropylene at 2 ml each. […]

Each structure is given as a SMILES string.

With `NC[C@H]1O[C@H](O[C@H]2[C@H](O)[C@@H](O[C@H]3O[C@H](CO)[C@@H](O)[C@H](N)[C@H]3O)[C@H](N)C[C@@H]2N)[C@H](N)C[C@@H]1O` [tobramycin, O-3-amino-3-desoxy-α-D-glucopyranosyl(1→4)-O-[2,6-diamino-2,3,6-tridesoxy-α-D-ribo-hexopyranosyl-(1→6)]-2-deoxystreptamine], the viscosity entry by setting is: (aqueous solution, pH 6.0 to 6.5, 100 mg/ml) “about 1.8 mPa·s”; (aqueous solution, pH 6.0 to 6.5, 180 mg/ml) “about 2.9 mPa·s”; (comparable aqueous solution, 120 mg/ml) “about 2.1 mPa·s”.

Source of the values: patent US20070071686A1, “Liquid preparation containing tobramycin” (Pari GmbH, priority 2003, published 2007).
